Laboratory results taken from patent US20100004285A1, “POLYMORPH OF 4-[2-[4-[1-(2-ETHOXYETHYL)-1H-BENZIMIDAZOLE-2-YL]-1-PIPERIDINYL]ETHYL]-alpha alpha-DIMETHYL-BENZENEACETIC ACID” (FAES FARMA, S.A., priority 2002, published 2010).
Entries after “also recorded” stand apart in the source; their conditions may differ.

Tests used:
[1] = test system: cutaneous capillary permeability induced by histamine; experiment: antagonism against cutaneous capillary permeability induced by histamine in the rat; format: in vivo
[2] = test system: histamine-induced lethality; experiment: preventing histamine-induced lethality in the guinea-pig; format: in vivo
[3] = stability of the crystalline polymorphic forms of bilastine; format: physicochemical

Row | Structure (SMILES) | antihistaminic properties: cutaneous capillary permeability induced by histamine [1] | antihistaminic properties: histamine-induced lethality [2] | stability of the crystalline form [3] | transformation into the other polymorphs [3] | stability of the polymorph at room temperature ([3]; room temperature) | stability when stored at temperatures above room temperature ([3]; stored at temperatures above room temperature)
1 | CCOCCn1c(C2CCN(CCc3ccc(C(C)(C)C(=O)O)cc3)CC2)nc2ccccc21 [crystalline form 1, 4-[2-[4-[1-(2-ethoxyethyl)-1H benzimidazole-2-yl]-1-piperidinyl]ethyl]-αα-dimethyl-benzeneacetic acid] | antagonism against cutaneous capillary permeability induced by histamine | preventing histamine-induced lethality | stable; also recorded: very stable | not transformed into any of the other polymorphs 2 and 3 | very stable | stable
2 | CCOCCn1c(C2CCN(CCc3ccc(C(C)(C)C(=O)O)cc3)CC2)nc2ccccc21 [crystalline form 2, 4-[2-[4-[1-(2-ethoxyethyl)-1H benzimidazole-2-yl]-1-piperidinyl]ethyl]-αα-dimethyl-benzeneacetic acid] | – | – | stable | – | – | –
3 | CCOCCn1c(C2CCN(CCc3ccc(C(C)(C)C(=O)O)cc3)CC2)nc2ccccc21 [crystalline form 3, 4-[2-[4-[1-(2-ethoxyethyl)-1H benzimidazole-2-yl]-1-piperidinyl]ethyl]-αα-dimethyl-benzeneacetic acid] | – | – | not very stable; also recorded: the most unstable | – | – | –
